Source: the NIST ThermoML archive (doi:10.1016/j.jct.2006.05.008)

Assay: molar heat capacity at constant pressure; wn = mass fraction of the nth substance listed
Details: Small (less than 1 g) adiabatic calorimetry

CCCCn1cc[n+](C)c1.[Br-] [1-butyl-3-methylimidazolium bromide] + O
Crystal
Details	molar heat capacity at constant pressure [J/K/mol]
187.43 K, w2 = 0.0495	137.82
187.72 K, w2 = 0.0169	154.64
188.57 K, w2 = 0.0051	162.67
189.16 K, w2 = 0.0495	138.51
189.75 K, w2 = 0.00482	163.1
189.81 K, w2 = 0.0169	155.65
190.07 K, w2 = 0.0495	138.44
191.13 K, w2 = 0.0051	164.05
191.82 K, w2 = 0.0495	139.23
191.89 K, w2 = 0.0169	156.63
192.35 K, w2 = 0.00482	164.66
192.72 K, w2 = 0.0495	139.22
193.7 K, w2 = 0.0051	165.5
193.98 K, w2 = 0.0169	157.56
194.48 K, w2 = 0.0495	139.88
194.95 K, w2 = 0.00482	166.1
195.38 K, w2 = 0.0495	139.99
196.08 K, w2 = 0.0169	158.61
196.26 K, w2 = 0.0051	166.89
197.16 K, w2 = 0.0495	140.43
197.55 K, w2 = 0.00482	167.55
198.05 K, w2 = 0.0495	140.75
198.17 K, w2 = 0.0169	159.59
198.82 K, w2 = 0.0051	168.3
200.15 K, w2 = 0.00482	169
200.26 K, w2 = 0.0169	160.53
200.73 K, w2 = 0.0495	141.5
201.38 K, w2 = 0.0051	169.66
202.36 K, w2 = 0.0169	161.49
202.75 K, w2 = 0.00482	170.67
203.43 K, w2 = 0.0495	142.32
203.93 K, w2 = 0.0051	171.24
204.46 K, w2 = 0.0169	162.5
205.36 K, w2 = 0.00482	172.16
206.48 K, w2 = 0.0051	172.9
206.55 K, w2 = 0.0169	163.54
207.97 K, w2 = 0.00482	173.71
208.05 K, w2 = 0.0495	144.92
208.65 K, w2 = 0.0169	164.5
209.03 K, w2 = 0.0051	175.02
210.59 K, w2 = 0.00482	175.21
210.75 K, w2 = 0.0495	151.13
210.77 K, w2 = 0.0169	165.47
211.56 K, w2 = 0.0051	176.7
212.87 K, w2 = 0.0169	166.55
213.21 K, w2 = 0.00482	176.73
213.38 K, w2 = 0.0495	150.25
214.1 K, w2 = 0.0051	177.3
214.97 K, w2 = 0.0169	167.69
215.83 K, w2 = 0.00482	178.25
215.99 K, w2 = 0.0495	154.67
216.64 K, w2 = 0.0051	178.89
216.82 K, w2 = 0.00482	178.65
217.07 K, w2 = 0.0169	169.05
217.64 K, w2 = 0.0169	168.8

Details	molar heat capacity at constant pressure [J/K/mol]
189.06 K, 101.3 kPa, Glass, w2 = 0.00482	173.78
191.65 K, 101.3 kPa, Glass, w2 = 0.00482	175.6
194.25 K, 101.3 kPa, Glass, w2 = 0.00482	177.44
196.84 K, 101.3 kPa, Glass, w2 = 0.00482	179.31
199.44 K, 101.3 kPa, Glass, w2 = 0.00482	181.34
201.78 K, 101.3 kPa, Glass, w2 = 0.00482	183.39
203.87 K, 101.3 kPa, Glass, w2 = 0.00482	185.23
205.95 K, 101.3 kPa, Glass, w2 = 0.00482	187.63
208.05 K, 101.3 kPa, Glass, w2 = 0.00482	190.57
209.63 K, 101 kPa, Liquid, w2 = 0.0495	190.63
210.13 K, 101.3 kPa, Glass, w2 = 0.00482	194.11
211.86 K, 101 kPa, Liquid, w2 = 0.0495	190.98
212.18 K, 101.3 kPa, Glass, w2 = 0.00482	199.24
213.95 K, 101 kPa, Liquid, w2 = 0.0495	191.32
214.19 K, 101.3 kPa, Glass, w2 = 0.00482	209.18
216.04 K, 101 kPa, Liquid, w2 = 0.0495	191.7
216.1 K, 101.3 kPa, Glass, w2 = 0.00482	229.46
218.13 K, 101 kPa, Liquid, w2 = 0.0495	191.97
